Common to all, as to type: biochemical
The target of one experiment is T1, Human KLK1 (Homo sapiens, UniProt P06870).
T1 construct: purchased Callbiochem (Calbiochem)
The experiment is described as follows: Determination of the IC50 for KLK1 (fluorogenic substrate H-DVal-Leu-Arg-AFC). The note with it: 37° C. The method, boiled down:
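hKLK1 + H-DVal-Leu-Arg-AFC, 37° C, varied cpd conc. Initial rate by A410 change → residual activity → IC50.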

A further experiment deals with plasma kallikrein (Homo sapiens, UniProt P03952). Description: Enzyme selectivity: plasma kallikrein (chromogenic substrate S-2302). The note with it: chromogenic substrate S-2302, 37° C. The protocol:
(§1) Determination of Enzyme Selectivity
(§2) Selected compounds were further screened for inhibitory activity against other trypsin-like serine proteases using the appropriate enzyme and chromogenic substrate (Chromogenix AB). The activity against the following human enzymes was tested (substrate in brackets):—plasma kallikrein (S-2302), thrombin (S-2238), plasmin (S-2390) and trypsin (S-2222). The enzyme was incubated at 37° C. with the chromogenic substrate. Residual enzyme activity (initial rate of reaction) was determined by measuring the change in optical absorbance at 405 nm.

The target in a further experiment is plasmin (Homo sapiens, UniProt P00747). Description: Enzyme selectivity: plasmin (chromogenic substrate S-2390). The note with it: chromogenic substrate S-2390, 37° C. The protocol:
as §1, §2

The target of another experiment is trypsin. The experiment is described as follows: Enzyme selectivity: trypsin (chromogenic substrate S-2222). The note with it: human enzyme, chromogenic substrate S-2222, 37° C. The protocol: as §1, §2
The target of another experiment is thrombin (Homo sapiens, UniProt P00734). Description: Enzyme selectivity: thrombin (chromogenic substrate S-2238). The settings on record: chromogenic substrate S-2238, 37° C. The protocol: as §1, §2

Each structure is given as a SMILES string. pIC50: −log10 of the molar value.

plasmin, sequence (P00747 581-810 limits assumed): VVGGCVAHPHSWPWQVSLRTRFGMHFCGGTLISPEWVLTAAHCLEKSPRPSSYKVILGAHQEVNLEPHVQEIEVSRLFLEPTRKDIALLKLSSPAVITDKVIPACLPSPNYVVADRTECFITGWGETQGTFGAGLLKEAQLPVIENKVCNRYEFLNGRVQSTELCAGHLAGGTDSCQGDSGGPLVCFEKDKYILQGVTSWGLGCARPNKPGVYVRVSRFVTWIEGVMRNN
plasmin, sequence (P00747 97-580 partner limits assumed): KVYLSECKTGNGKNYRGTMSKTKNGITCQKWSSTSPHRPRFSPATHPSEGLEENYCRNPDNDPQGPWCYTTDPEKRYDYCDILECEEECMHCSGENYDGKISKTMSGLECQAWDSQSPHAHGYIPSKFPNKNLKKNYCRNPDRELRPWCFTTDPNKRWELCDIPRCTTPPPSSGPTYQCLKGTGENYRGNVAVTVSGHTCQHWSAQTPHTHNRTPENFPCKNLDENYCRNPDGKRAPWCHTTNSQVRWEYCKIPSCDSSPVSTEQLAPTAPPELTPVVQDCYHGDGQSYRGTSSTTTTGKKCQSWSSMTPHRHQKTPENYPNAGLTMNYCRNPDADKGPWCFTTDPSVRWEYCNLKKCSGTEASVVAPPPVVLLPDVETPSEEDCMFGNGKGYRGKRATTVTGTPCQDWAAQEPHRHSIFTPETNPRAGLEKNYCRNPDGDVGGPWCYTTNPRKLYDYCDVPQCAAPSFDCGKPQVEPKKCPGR
plasma kallikrein, sequence (P03952 20-638): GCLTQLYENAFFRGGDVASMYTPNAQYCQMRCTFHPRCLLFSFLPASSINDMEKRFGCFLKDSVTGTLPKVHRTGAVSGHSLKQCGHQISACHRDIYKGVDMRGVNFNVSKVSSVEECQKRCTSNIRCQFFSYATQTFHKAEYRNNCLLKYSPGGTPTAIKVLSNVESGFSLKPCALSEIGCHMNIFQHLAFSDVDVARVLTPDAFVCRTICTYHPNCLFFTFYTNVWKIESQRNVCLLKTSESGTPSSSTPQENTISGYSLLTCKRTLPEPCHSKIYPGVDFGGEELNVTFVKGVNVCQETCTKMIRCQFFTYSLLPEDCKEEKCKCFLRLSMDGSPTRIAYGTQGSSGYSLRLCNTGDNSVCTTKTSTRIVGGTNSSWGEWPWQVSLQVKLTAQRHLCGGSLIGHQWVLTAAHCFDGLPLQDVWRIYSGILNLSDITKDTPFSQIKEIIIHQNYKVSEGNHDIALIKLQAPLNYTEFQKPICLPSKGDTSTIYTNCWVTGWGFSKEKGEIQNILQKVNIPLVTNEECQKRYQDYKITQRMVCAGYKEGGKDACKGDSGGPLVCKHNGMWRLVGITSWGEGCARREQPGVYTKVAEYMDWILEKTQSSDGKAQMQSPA
T1 sequence (P06870 25-262): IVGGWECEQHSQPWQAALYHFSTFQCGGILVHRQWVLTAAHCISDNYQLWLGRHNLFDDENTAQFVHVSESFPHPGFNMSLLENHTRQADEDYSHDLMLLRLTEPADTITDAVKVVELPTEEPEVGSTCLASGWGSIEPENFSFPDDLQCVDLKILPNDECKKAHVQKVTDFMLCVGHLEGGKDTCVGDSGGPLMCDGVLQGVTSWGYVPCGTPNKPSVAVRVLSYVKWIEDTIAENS

`Nc1ccc(CNC(=O)[C@H](Cc2ccc(Cl)c(Cl)c2)NC(=O)[C@H](N)Cc2ccccc2)cn1` [Example 54, (R)-2-Amino-N-[(S)-1-[(6-amino-pyridin-3-ylmethyl)-carbamoyl]-2-(3,4-dichloro-phenyl)-ethyl]-3-phenyl-propionamide]: the pIC50 at Human KLK1 is 9.54; at plasma kallikrein it was below 5.00; against plasmin, below 5.00; at trypsin, below 5.00; on thrombin it was below 5.00.

Take `CN[C@H](C)C(=O)N[C@@H](Cc1ccc(Cl)c(Cl)c1)C(=O)NCc1ccc(N)nc1` [Example 62, (R)—N-[(S)-1-[(6-Amino-pyridin-3-ylmethyl)-carbamoyl]-2-(3,4-dichloro-phenyl)-ethyl]-2-methylamino-propionamide]: the pIC50 at Human KLK1 was 8.62; against plasma kallikrein, below 5.00; against plasmin, below 5.00; on trypsin, below 5.00; against thrombin, below 5.00.

On to `CCC(C)[C@@H](N)C(=O)N[C@@H](Cc1ccccc1C(F)(F)F)C(=O)NCc1ccc(N)nc1` (stereo partly drawn) [Example 25, (R)-2-Amino-3-methyl-pentanoic acid [(S)-1-[(6-amino-pyridin-3-ylmethyl)-carbamoyl]-2-(2-trifluoromethyl-phenyl)-ethyl]-amide], for which the negative logarithm of the IC50 (pIC50) is 8.01 against Human KLK1; below 5.00 on plasma kallikrein; below 5.00 against plasmin; below 5.00 against trypsin; below 5.00 against thrombin.

For the compound `Nc1ccc(CNC(=O)[C@H](CC2CCCC3CCCCC32)NC(=O)c2ccc[nH]2)cn1` (stereo partly drawn) [Example 227, 1H-Pyrrole-2-carboxylic acid [(S)-1-[(6-amino-pyridin-3-ylmethyl)-carbamoyl]-2-(decahydro-naphthalen-1-yl)-ethyl]-amide], the pIC50 against Human KLK1 was 8.28; against plasma kallikrein it was below 5.00; against plasmin, below 5.00; on trypsin, below 5.00; against thrombin it was below 5.00.

As for `CC(C)N(C)[C@@H](C)C(=O)N[C@@H](CC1CCCCC1)C(=O)NCc1ccc(N)nc1` [Example 381, (S)—N-{(S)-1-[(6-Amino-pyridin-3-ylmethyl)-carbamoyl]-2-cyclohexyl-ethyl}-2-(isopropyl-methyl-amino)-propionamide], the pIC50 against Human KLK1 is 8.96; against plasma kallikrein, below 5.00; against plasmin, below 5.00; against trypsin, below 5.00; against thrombin, below 5.00.

Consider `CCC(C)[C@@H](N)C(=O)N[C@@H](CC1CCCC2CCCCC21)C(=O)NCc1ccc(N)nc1` (stereo partly drawn) [Example 2, (R)-2-Amino-3-methyl-pentanoic acid [(S)-1-[(6-amino-pyridin-3-ylmethyl)-carbamoyl]-2-(decahydro-naphthalen-1-yl)-ethyl]-amide], for which the pIC50 at Human KLK1 is 9.00; on plasma kallikrein, below 5.00; against plasmin it was below 5.00; against trypsin it was below 5.00; against thrombin it was below 5.00.

Turning to `CC(C)(C)[C@@H](N)C(=O)N[C@@H](Cc1ccc(Cl)c(Cl)c1)C(=O)NCc1ccc(N)nc1` [Example 61, (R)-2-Amino-N-[(S)-1-[(6-amino-pyridin-3-ylmethyl)-carbamoyl]-2-(3,4-dichloro-phenyl)-ethyl]-3,3-dimethyl-butyramide], the pIC50 against Human KLK1 is 9.40; against plasma kallikrein it was below 5.00; against plasmin, below 5.00; against trypsin it was below 5.00; on thrombin, below 5.00.

One may read the pIC50 as the negative decadic logarithm of the IC50, by convention in mol/L. Lower therefore signals a large IC50.

Values taken from patent US20100076015A1, “Aminopyridine Derivatives” (VANTIA LIMITED, priority 2008, published 2010).
